In article PMC12722994, “The aryl hydrocarbon receptor is associated with monocytic AML and innate immune resistance reversible with an AHR inhibitor” (Frontiers in Immunology, 2025):

Target: T1, aryl hydrocarbon receptor (AHR) (Homo sapiens, UniProt P35869)
T1 sequence (P35869 11-848): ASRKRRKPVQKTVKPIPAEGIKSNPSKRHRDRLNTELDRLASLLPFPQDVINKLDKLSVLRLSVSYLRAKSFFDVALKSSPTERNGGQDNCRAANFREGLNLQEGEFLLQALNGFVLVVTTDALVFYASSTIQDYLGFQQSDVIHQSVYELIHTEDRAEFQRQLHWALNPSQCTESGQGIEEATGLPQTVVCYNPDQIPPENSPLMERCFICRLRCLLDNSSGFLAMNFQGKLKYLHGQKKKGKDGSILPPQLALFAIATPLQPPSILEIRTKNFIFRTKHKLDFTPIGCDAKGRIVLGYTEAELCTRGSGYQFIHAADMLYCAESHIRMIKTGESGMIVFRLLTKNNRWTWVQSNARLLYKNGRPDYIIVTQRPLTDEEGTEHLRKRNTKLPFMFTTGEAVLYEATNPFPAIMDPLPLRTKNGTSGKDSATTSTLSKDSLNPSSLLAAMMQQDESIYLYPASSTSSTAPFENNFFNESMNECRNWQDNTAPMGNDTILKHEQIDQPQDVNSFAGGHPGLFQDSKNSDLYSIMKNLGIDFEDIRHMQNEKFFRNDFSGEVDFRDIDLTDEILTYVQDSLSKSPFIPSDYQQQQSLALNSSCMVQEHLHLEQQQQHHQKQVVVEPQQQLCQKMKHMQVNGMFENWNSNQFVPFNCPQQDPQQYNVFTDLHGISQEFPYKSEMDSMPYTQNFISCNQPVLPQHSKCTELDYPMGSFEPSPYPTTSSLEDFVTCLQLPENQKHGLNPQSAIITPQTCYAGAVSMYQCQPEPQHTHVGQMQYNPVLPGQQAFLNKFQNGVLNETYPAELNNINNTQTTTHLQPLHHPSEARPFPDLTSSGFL
Test: Inhibition of AHR target gene CYP1B1 expression (RT-qPCR) in MOLM-14 cells, endogenous AHR; functional readout only
Format: cell-based

For IK-364, which IC50 is on record?
The IC50 was 5 nM.
